Laboratory results: patent US5556872A, “Histamine derivatives useful as immunomodulators” (The Board of Trustees of the Leland Stanford Junior …, priority 1995, dated 1996)
Each block holds one compound with its values, some of them ahead of it.

How the values were obtained:
[1] = test system: IgG antibody response to horse myoglobin (h-Mb); test: Inhibition of IgG and IgG subclass antibody response to horse myoglobin in immunized mice (anti-horse myoglobin ELISA); format: in vivo, DBA/2 mice; conditions: vs saline control mice
Procedure: ELISA plates were coated with 10 ug/ml commercially available horse myoglobin (h-Mb) in PBS 50 ul/well overnight at 4 deg C. The plates were washed with PBS once. The plates were then coated with 50 ul BBA (1 mg/ml) and washed with PBS once. The plates were then coated with test serum diluted in PBS-Tween, 50 ul/well and incubated at 4 deg C. overnight. The plates were then washed with PBS-Tween three times. Anti-IgG (1:2000) was added and diluted with PBS-Tween. For the IgG antibody subclasses, anti-IgG1, anti-IgG2a, anti-IgG2b was diluted and added to selected wells. Incubation was at 4 deg C. for two hours. Washing was with PBS-Tween 2 times with 5 minutes between each wash. A 1 mg/ml OPD in citrate buffer solution pH5 was prepared and 10 ul of H2O2/10 ml was added to the buffer solution. 50 ul of buffer was added to each well and the plates were placed in the dark for about 10 minutes. The reaction was stopped with 50 ul of 5N H2SO4 in each well. The plates were then read on an Elisa reader.
The following immunization protocol was repeated several times. The results have been collected in FIGS. 1a-d.
This experiment was done using two groups of 2-6 DBA/2 mice (average weight 22 grams). One group of mice were given one treatment of compound 3 intravenously one day before antigen treatment (day-1) and two days following antigen treatment (day+2). The dose of compound 3 was approximately 36 mg/kg in 100 ul of PBS. The other group of mice was given a saline control in 100 ul PBS. On day 0 the two groups of mice were injected with 100 ug h-Mb in 100 ul CFA intravenously (i.v.). The mice were then boosted fourteen days later with 100 ug of h-Mb in 100 ul IFA. The mice were bled 30 days later.

H3 = test: Dominant interactions of congeners with histamine receptors: H3; format: binding; conditions: Human lymphocytes, monocytes and neutrophils
Hx = test: Dominant interactions of congeners with histamine receptors: Hx; format: binding, Human
H1 = H1 (Homo sapiens, UniProt P35367); test: Dominant interactions of congeners with histamine receptors: H1; format: binding
H2 = H2 (Homo sapiens, UniProt P25021); test: Dominant interactions of congeners with histamine receptors: H2; format: binding
human Ts cells = conditions: Khan et al. 1985, Sansoni et al. 1985; cited from earlier work
[2] = test system: phytohemagglutinin-induced Th proliferation; conditions: pretreatment of human Ts cells with histamine; mediated via H2 receptors; cited from earlier work
murine NS cells = conditions: in vitro; cited from earlier work
[3] = test system: pokeweed mitogen-induced B cell differentiation; conditions: pretreatment of human Ts cells with histamine; mediated via H2 receptors; cited from earlier work
[4] = comparable experiment using Compound 1, FIG. 3
[5] = compound 3 approx. 36 mg/kg i.v. day -1 and day +2, FIG. 1

Sequence of H1 (P35367 whole entry): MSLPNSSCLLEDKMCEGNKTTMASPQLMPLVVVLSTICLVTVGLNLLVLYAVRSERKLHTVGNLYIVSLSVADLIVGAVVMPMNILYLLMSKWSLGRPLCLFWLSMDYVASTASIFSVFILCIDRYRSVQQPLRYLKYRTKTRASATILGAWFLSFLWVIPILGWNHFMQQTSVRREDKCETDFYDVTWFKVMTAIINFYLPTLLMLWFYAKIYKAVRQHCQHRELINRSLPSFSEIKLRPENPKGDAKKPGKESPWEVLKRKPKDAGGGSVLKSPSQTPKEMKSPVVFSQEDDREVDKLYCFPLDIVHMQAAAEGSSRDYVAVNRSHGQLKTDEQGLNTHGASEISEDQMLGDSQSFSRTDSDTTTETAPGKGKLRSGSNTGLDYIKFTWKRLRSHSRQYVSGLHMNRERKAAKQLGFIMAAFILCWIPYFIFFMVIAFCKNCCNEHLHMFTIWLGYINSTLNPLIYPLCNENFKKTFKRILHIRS
Sequence of H2 (P25021 whole entry): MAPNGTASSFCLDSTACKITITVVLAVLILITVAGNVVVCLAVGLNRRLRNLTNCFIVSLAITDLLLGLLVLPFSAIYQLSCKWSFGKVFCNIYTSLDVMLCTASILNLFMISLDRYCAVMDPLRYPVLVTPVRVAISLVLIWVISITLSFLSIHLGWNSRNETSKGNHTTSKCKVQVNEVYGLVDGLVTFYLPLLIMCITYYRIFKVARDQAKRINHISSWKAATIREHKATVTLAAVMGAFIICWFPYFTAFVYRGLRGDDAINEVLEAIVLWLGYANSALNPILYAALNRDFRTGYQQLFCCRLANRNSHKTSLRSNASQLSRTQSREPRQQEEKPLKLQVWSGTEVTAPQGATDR

- H3 dominant interaction (H3): AntiHx
Compound: CC(CCCCC(=O)Nc1ccc(C(F)(F)F)cc1)NCCc1c[nH]cn1 (stereo not shown) [Compound 1, His--NH--CHCH3--(CH2)4 CONH--phi--CF3]
- IgG1 response [1, 4]: lower
- IgG2a response [1, 4]: lower
- IgG response [1, 4]: lower

- Hx activity (in words) (Hx): some Hx activity
- H1 receptor activity (in words) (H1): not H1 receptor activity
Compound: O=C(CCCCCNCCc1c[nH]cn1)Nc1ccc(C(F)(F)F)cc1 [Compound 3, His--NH--(CH2)5 CONH--phi--CF3]
- IgG1 response [1, 5]: lower
- IgG2a response [1, 5]: lower
- IgG2b response [1, 5]: lower
- total IgG response to h-Mb [1, 5]: much lower
- H2 receptor activity (in words) (H2): has been shown to have H2 receptor activity

- Hx dominant interaction (Hx; Human lymphocytes, monocytes and neutrophils): AntiHx
Compound: NCCc1c[nH]cn1 [Histamine]
- effect on human Ts cells (human Ts cells): activates human Ts cells
- phytohemagglutinin-induced Th proliferation [2]: inhibited
- effect on suppressive ability of murine NS cells (murine NS cells): enhances the suppressive ability of murine NS cells in vitro
- pokeweed mitogen-induced B cell differentiation [3]: inhibited
